Experimental data reported in patent publication US9051275B2, “4-[-2-[[5-methyl-1-(2-naphtalenyl)-1H-pyrazol-3-yl]oxy]ethyl]morpholine hydrochloride polymorphs and solvates” (Laboratories Del Dr. Esteve, S.A., priority 2010, dated 2015).

Legend:
[1] = treatment and prevention of chronic and acute pain, particularly neuropathic pain; cited from earlier work
sigma-1 (σ-1) receptor = sigma-1 (σ-1) receptor (Homo sapiens, UniProt Q99720); details: cited from earlier work
[2] = Pressure: tablets of P027 phase I in a hydraulic press, PXRD analysis; type: physicochemical
Procedure: Tablets of P027 phase I were prepared in a hydraulic press at three different pressures (5, 7.5 and 10 tons) for three different times (5, 30 and 90 minutes) [see Table 24].
The solid samples obtained were analyzed by PXRD. […] FIG. 19 illustrates the PXRD pattern of a phase I form obtained by applying a pressure of […] to P027 for 90 minutes.

[3] = 1H NMR check of the stability of the salt in phase I samples; type: physicochemical; details: several samples of phase I from different crystallizations
Procedure: In addition, several samples of phase I were analyzed by ^1H NMR in order to check the stability of the salt.

[4] = Grinding of P027 phase I with catalytic solvent in a ball mill, PXRD analysis; type: physicochemical
Procedure: Approximately 40 mg of P027 phase I were transferred to a ball mill container together with catalytic quantities of the relevant solvent (three drops). The P027 phase I and the solvent were grinded at a maximum frequency of 30 s^−1 for 30 minutes (see Table 23).
The solid samples obtained were analyzed by PXRD. […] FIG. 18 illustrates the PXRD pattern of a phase I form obtained from grinding P027 together with dichloromethane.

[5] = Solubility of P027 in different solvents at room temperature (visual, successive solvent additions); type: physicochemical; details: thermodynamic from solid
Procedure: In order to plan the crystallization screening, […] table 6 using the following methodology (table 7): […] solvent and successive additions (initially 0.2 mL and finally 0.5 mL) of solvent until the solid was completely dissolved or up to a maximum of 8 mL were performed. After each solvent addition the suspension was vigorously stirred for 10-15 minutes and visually inspected to determine if the solid was completely dissolved.

[6] = Descriptive solubility of the P027 compound; type: physicochemical
[7] = Dissolution and absorption profile in vivo compared with the related base; details: compared with its related base
[8] = drying for 4 hours at 60° C., 80° C. and 100° C.
sigma 2 (σ-2) site = sigma 2 (σ-2) site (Homo sapiens, UniProt Q5BJF2); details: cited from earlier work
sigma 1 (σ-1) site = sigma 1 (σ-1) site (Homo sapiens, UniProt Q99720); details: cited from earlier work
Chain of sigma 1 (σ-1) site (Q99720 whole entry): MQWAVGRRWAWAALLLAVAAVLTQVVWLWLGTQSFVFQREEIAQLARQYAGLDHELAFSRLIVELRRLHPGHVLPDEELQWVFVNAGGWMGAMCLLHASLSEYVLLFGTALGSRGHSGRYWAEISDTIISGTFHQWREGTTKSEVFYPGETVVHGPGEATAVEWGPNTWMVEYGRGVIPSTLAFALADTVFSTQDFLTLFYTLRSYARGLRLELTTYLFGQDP

Chain of sigma-1 (σ-1) receptor (Q99720 whole entry): as above
Chain of sigma 2 (σ-2) site (Q5BJF2 whole entry): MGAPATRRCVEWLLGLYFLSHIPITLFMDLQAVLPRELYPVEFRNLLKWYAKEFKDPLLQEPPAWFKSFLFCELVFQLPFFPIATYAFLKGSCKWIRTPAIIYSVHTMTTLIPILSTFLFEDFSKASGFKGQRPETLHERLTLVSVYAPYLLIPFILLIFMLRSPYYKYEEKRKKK

**Q.** With Cc1cc(OCCN2CCOCC2)nn1-c1ccc2ccccc2c1 [4-[2-[[5-methyl-1-(2-naphthalenyl)-1H-pyrazol-3-yl]oxy]ethyl]morpholine] as the compound, how does the analgesic activity [1] read?
**A.** The analgesic activity was “strong analgesic activity”.

**Q.** And the “sigma-1 (σ-1) receptor antagonism, selectivity” value (sigma-1 (σ-1) receptor)?
**A.** Its value is “highly selective sigma-1 (σ-1) receptor antagonist”.

**Q.** What does the source list for Cc1cc(OCCN2CCOCC2)nn1-c1ccc2ccccc2c1.Cl [P027 phase I, 4-[2-[[5-methyl-1-(2-naphthalenyl)-1H-pyrazol-3-yl]oxy]ethyl]morpholine hydrochloride phase I crystalline form]?
**A.** phase stability under pressure (PXRD) ([2]; 5, 7.5 and 10 tons for 5, 30 and 90 minutes): stable under pressure; phase stability under pressure (PXRD) ([2]; pressure of 30 tons for 90 minutes (FIG. 19)): consistent with the standard phase I PXRD pattern demonstrating the phase stability; stability of the salt (1H NMR) [3]: no signs of the lost of HCl or decomposition; phase stability after grinding (PXRD) ([4]; ball mill, three drops of solvent (Table 23), 30 s^-1 for 30 minutes): stable after grinding; phase stability after grinding (PXRD) ([4]; grinding together with dichloromethane (FIG. 18)): consistent with the standard phase I PXRD pattern demonstrating the phase stability

**Q.** For Cc1cc(OCCN2CCOCC2)nn1-c1ccc2ccccc2c1.Cl [P027, 4-[2-[[5-methyl-1-(2-naphthalenyl)-1H-pyrazol-3-yl]oxy]ethyl]morpholine hydrochloride], which solubility ([5]; organic solvent or mixture, 1,1,1-Trichloroethane, room temperature) is on record?
**A.** Its solubility is under 1200 µg/mL.

**Q.** And the solubility ([5]; organic solvent or mixture, 1,2-Dichloroethane, room temperature)?
**A.** The solubility was 15000 to 25000 µg/mL.

**Q.** And the solubility ([5]; organic solvent or mixture, 2-Butanol, solid was dissolved at 60° C., left at room temperature, no solid observed)?
**A.** The solubility was 3000 to 4000 µg/mL.

**Q.** And the solubility ([5]; organic solvent or mixture, 3-Pentanone, solid was dissolved at 80° C., left at room temperature, no solid observed)?
**A.** Its solubility is 1000 to 2000 µg/mL.

**Q.** What about the solubility ([5]; organic solvent or mixture, Acetone, room temperature) of the same compound?
**A.** Its solubility is 4000 to 5000 µg/mL.

**Q.** What about the solubility ([5]; organic solvent or mixture, Acetonitrile, solid was dissolved at 60° C., left at room temperature, no solid observed) of the same compound?
**A.** Its solubility is 10000 to 20000 µg/mL.

**Q.** What about the solubility ([5]; organic solvent or mixture, Butyl amine, room temperature) of the same compound?
**A.** Its solubility is over 50000 µg/mL.

**Q.** What about the solubility ([5]; organic solvent or mixture, Chlorobenzene, room temperature) of the same compound?
**A.** The solubility was under 1200 µg/mL.

**Q.** And the solubility ([5]; organic solvent or mixture, Chloroform, room temperature)?
**A.** Its solubility is over 50000 µg/mL.

**Q.** And the solubility ([5]; organic solvent or mixture, Cyclohexane, room temperature)?
**A.** Its solubility is under 1200 µg/mL.

**Q.** What about the solubility ([5]; organic solvent or mixture, Dichloromethane, room temperature) of the same compound?
**A.** The solubility was over 50000 µg/mL.

**Q.** And the solubility ([5]; organic solvent or mixture, Diethoxymethane, room temperature)?
**A.** The solubility was under 1200 µg/mL.

**Q.** And the solubility ([5]; organic solvent or mixture, Diisopropyl ether, room temperature)?
**A.** Its solubility is under 1200 µg/mL.

**Q.** What about the solubility ([5]; organic solvent or mixture, Dimethoxymethane, room temperature) of the same compound?
**A.** The solubility was under 1200 µg/mL.

**Q.** And the solubility ([5]; organic solvent or mixture, Dimethylcarbonate, solid was dissolved at 80° C., left at room temperature, no solid observed)?
**A.** Its solubility is 1000 to 2000 µg/mL.

**Q.** And the solubility ([5]; organic solvent or mixture, Dimethylformamide, room temperature)?
**A.** Its solubility is over 50000 µg/mL.

**Q.** And the solubility ([5]; organic solvent or mixture, Dimethylsulfoxide, room temperature)?
**A.** Its solubility is over 50000 µg/mL.

**Q.** What about the solubility ([5]; organic solvent or mixture, Dioxane, solid was dissolved at 80° C., left at room temperature, no solid observed) of the same compound?
**A.** The solubility was 1000 to 2000 µg/mL.

**Q.** What about the solubility ([5]; organic solvent or mixture, Ethanol, room temperature) of the same compound?
**A.** Its solubility is 15000 to 25000 µg/mL.

**Q.** What about the solubility ([5]; organic solvent or mixture, Ethyl acetate, room temperature) of the same compound?
**A.** Its solubility is under 1200 µg/mL.

**Q.** What about the solubility ([5]; organic solvent or mixture, Isobutyl acetate, room temperature) of the same compound?
**A.** The solubility was under 1200 µg/mL.

**Q.** What about the solubility ([5]; organic solvent or mixture, Isopropanol, solid was dissolved at 60° C., left at room temperature, no solid observed) of the same compound?
**A.** Its solubility is 4000 to 5000 µg/mL.

**Q.** And the solubility ([5]; organic solvent or mixture, Isopropyl acetate, room temperature)?
**A.** The solubility was under 1200 µg/mL.

**Q.** And the solubility ([5]; organic solvent or mixture, Methanol, room temperature)?
**A.** The solubility was over 50000 µg/mL.

**Q.** And the solubility ([5]; organic solvent or mixture, Methyl acetate, room temperature)?
**A.** The solubility was under 1200 µg/mL.

**Q.** What about the solubility ([5]; organic solvent or mixture, Methyl ethyl ketone, solid was dissolved at 60° C., left at room temperature, no solid observed) of the same compound?
**A.** Its solubility is 2000 to 4000 µg/mL.

**Q.** And the solubility ([5]; organic solvent or mixture, Methyl isobutyl ketone, room temperature)?
**A.** Its solubility is under 1200 µg/mL.

**Q.** And the solubility ([5]; organic solvent or mixture, Methyl tert-butyl ether, room temperature)?
**A.** Its solubility is under 1200 µg/mL.

**Q.** And the solubility ([5]; organic solvent or mixture, N,N-Dimethylacetamide, room temperature)?
**A.** The solubility was 25000 to 50000 µg/mL.

**Q.** And the solubility ([5]; organic solvent or mixture, Nitromethane, room temperature)?
**A.** The solubility was 25000 to 50000 µg/mL.

**Q.** And the solubility ([5]; organic solvent or mixture, Propyl acetate, room temperature)?
**A.** The solubility was under 1200 µg/mL.

**Q.** And the solubility ([5]; organic solvent or mixture, Pyridine, room temperature)?
**A.** Its solubility is 25000 to 50000 µg/mL.

**Q.** And the solubility ([5]; organic solvent or mixture, Tetrahydrofuran, room temperature)?
**A.** The solubility was under 1200 µg/mL.

**Q.** What about the solubility ([5]; organic solvent or mixture, Toluene, room temperature) of the same compound?
**A.** The solubility was under 1200 µg/mL.

**Q.** And the solubility ([5]; organic solvent or mixture, Triethylamine, room temperature)?
**A.** Its solubility is under 1200 µg/mL.

**Q.** And the solubility ([5]; organic solvent or mixture, Xylene, room temperature)?
**A.** Its solubility is under 1200 µg/mL.

**Q.** What about the solubility ([5]; organic solvent or mixture, n-Butanol, solid was dissolved at 60° C., left at room temperature, no solid observed) of the same compound?
**A.** The solubility was 5000 to 10000 µg/mL.

**Q.** What about the solubility ([5]; organic solvent or mixture, n-Heptane, room temperature) of the same compound?
**A.** Its solubility is under 1200 µg/mL.

**Q.** And the solubility ([5]; organic solvent or mixture, n-Hexane, room temperature)?
**A.** Its solubility is under 1200 µg/mL.

**Q.** What about the solubility ([5]; Water, room temperature) of the same compound?
**A.** The solubility was over 50000 µg/mL.

**Q.** And the “solubility in 1N hydrochloric acid” value ([6]; 1N hydrochloric acid)?
**A.** The value was “freely soluble”.

**Q.** And the “solubility in 1N sodium hydroxide” value ([6]; 1N sodium hydroxide)?
**A.** Its value is “practically insoluble”.

**Q.** And the solubility in acetone ([6]; acetone)?
**A.** The solubility in acetone was “slightly soluble”.

**Q.** And the “solubility in dimethyl sulphoxide” value ([6]; dimethyl sulphoxide)?
**A.** Its value is “freely soluble”.

**Q.** What about the solubility in ethanol ([6]; ethanol) of the same compound?
**A.** The solubility in ethanol was “sparingly soluble”.

**Q.** What about the “solubility in ethyl acetate” value ([6]; ethyl acetate) of the same compound?
**A.** Its value is “practically insoluble”.

**Q.** What about the solubility in methanol ([6]; methanol) of the same compound?
**A.** The solubility in methanol was “freely soluble”.

**Q.** What about the solubility in water ([6]; water) of the same compound?
**A.** The solubility in water was “very soluble”.

**Q.** And the “dissolution and absorption profile in vivo” value [7]?
**A.** The value was “better dissolution and absorption profile in vivo than its related base”.

**Q.** For C1COCCO1.Cc1cc(OCCN2CCOCC2)nn1-c1ccc2ccccc2c1.Cl [dioxane solvate, 4-[2-[[5-methyl-1-(2-naphthalenyl)-1H-pyrazol-3-yl]oxy]ethyl]morpholine hydrochloride solvate with dioxane], which “solid form after drying (PXRD)” value [8] is on record?
**A.** The value was “transformation to Phase I was observed”.

**Q.** What does the source list for SKF 10047?
**A.** affinity for the sigma 2 (σ-2) site (sigma 2 (σ-2) site): micromolar; affinity for the sigma 1 (σ-1) site (sigma 1 (σ-1) site): nanomolar
